Data published in patent publication US12486267B2, “Imidazo[1,2-A]pyridine and [1,2,4]triazolo[1,5-A]pyridine derivatives as TLR9 inhibitors for the treatment of fibrosis” (BRISTOL-MYERS SQUIBB COMPANY, priority 2020, dated 2025).

How the values were obtained:
Format in all cases: cell-based
human TLR9 = target: T1, human TLR9 (Homo sapiens, UniProt Q9NR96); assay: TLR9 inhibition reporter assay (HEK-Blue cells, SEAP reporter); details: HEK-Blue cells overexpressing human TLR9; stimulated with ODN2006 5 nM; 22 hour incubation; SEAP readout
T1 sequence (Q9NR96 26-1032): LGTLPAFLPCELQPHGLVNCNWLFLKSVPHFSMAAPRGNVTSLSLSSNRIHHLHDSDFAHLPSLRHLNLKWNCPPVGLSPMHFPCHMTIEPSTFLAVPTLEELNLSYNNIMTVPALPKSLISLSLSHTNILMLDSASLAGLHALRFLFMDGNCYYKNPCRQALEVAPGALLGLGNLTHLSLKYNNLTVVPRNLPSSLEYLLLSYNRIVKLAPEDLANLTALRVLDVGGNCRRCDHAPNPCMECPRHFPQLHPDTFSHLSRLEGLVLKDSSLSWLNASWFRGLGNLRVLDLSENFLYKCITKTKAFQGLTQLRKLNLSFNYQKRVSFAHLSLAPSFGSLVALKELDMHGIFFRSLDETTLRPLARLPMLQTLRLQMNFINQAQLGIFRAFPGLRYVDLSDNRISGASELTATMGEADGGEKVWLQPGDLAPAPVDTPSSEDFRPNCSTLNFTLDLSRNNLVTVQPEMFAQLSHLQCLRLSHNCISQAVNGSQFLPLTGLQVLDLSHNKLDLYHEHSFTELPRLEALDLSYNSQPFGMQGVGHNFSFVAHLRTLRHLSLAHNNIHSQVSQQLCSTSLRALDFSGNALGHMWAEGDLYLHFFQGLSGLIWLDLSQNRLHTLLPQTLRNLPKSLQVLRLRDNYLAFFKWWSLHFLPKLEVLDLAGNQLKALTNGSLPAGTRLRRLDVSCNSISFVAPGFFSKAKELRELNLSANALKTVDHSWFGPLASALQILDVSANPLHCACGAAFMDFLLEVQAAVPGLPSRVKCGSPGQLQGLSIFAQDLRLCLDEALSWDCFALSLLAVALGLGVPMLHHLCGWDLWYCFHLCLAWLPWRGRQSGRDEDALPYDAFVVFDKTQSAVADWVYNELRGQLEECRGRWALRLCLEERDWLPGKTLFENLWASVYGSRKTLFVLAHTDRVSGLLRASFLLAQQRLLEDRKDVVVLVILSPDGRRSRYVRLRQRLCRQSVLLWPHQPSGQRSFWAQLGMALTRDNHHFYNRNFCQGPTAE
Summary of the method: (§1)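 HEK-Blue cells with an NF-κB/AP-1-driven SEAP reporter were pre-treated 30 min at room temperature with compound (0.05 nM–50 μM), then stimulated with gardiquimod 7.5 μM (TLR7), R848 15.9 μM (TLR8) or ODN2006 5 nM (TLR9). After 22 h at 37 °C, SEAP was read; % inhibition was referenced to agonist+DMSO and known-inhibitor wells.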

human TLR7 = target: T2, human TLR7 (Homo sapiens, UniProt Q9NYK1); assay: TLR7 inhibition reporter assay (HEK-Blue cells, SEAP reporter); details: HEK-Blue cells overexpressing human TLR7; stimulated with gardiquimod 7.5 μM; 22 hour incubation; SEAP readout
T2 sequence (Q9NYK1 27-1049): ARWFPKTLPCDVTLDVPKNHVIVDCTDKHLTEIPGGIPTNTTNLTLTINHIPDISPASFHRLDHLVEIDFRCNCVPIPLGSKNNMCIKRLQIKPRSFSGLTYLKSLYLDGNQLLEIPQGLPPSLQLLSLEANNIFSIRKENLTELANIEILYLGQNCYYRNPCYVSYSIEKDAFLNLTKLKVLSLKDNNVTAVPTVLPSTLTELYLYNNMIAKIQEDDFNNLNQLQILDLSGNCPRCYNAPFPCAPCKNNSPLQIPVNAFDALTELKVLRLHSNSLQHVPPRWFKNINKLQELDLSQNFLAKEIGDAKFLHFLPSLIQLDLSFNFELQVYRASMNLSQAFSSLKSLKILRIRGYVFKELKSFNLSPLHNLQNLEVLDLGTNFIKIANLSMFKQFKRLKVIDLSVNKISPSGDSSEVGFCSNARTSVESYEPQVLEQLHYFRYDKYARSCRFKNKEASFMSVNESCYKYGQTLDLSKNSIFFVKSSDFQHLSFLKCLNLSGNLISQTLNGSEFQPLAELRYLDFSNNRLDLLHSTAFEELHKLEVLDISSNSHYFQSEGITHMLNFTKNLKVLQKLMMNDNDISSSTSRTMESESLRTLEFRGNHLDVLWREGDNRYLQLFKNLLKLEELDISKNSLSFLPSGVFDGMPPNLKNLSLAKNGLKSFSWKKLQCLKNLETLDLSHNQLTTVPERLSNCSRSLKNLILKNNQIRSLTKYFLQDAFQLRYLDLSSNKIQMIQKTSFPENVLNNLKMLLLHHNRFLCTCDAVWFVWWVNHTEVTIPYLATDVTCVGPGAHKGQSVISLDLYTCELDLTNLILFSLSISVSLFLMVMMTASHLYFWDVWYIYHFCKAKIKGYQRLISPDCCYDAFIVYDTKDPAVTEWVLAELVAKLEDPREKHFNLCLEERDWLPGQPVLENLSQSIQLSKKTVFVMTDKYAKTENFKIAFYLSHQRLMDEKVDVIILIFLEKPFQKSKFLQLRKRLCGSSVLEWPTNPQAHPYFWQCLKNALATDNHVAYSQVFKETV
Summary of the method: as §1

human TLR8 = target: T3, human TLR8 (Homo sapiens, UniProt Q9NR97); assay: TLR8 inhibition reporter assay (HEK-Blue cells, SEAP reporter); details: HEK-Blue cells overexpressing human TLR8; stimulated with R848 15.9 μM; 22 hour incubation; SEAP readout
T3 sequence (Q9NR97 27-1041): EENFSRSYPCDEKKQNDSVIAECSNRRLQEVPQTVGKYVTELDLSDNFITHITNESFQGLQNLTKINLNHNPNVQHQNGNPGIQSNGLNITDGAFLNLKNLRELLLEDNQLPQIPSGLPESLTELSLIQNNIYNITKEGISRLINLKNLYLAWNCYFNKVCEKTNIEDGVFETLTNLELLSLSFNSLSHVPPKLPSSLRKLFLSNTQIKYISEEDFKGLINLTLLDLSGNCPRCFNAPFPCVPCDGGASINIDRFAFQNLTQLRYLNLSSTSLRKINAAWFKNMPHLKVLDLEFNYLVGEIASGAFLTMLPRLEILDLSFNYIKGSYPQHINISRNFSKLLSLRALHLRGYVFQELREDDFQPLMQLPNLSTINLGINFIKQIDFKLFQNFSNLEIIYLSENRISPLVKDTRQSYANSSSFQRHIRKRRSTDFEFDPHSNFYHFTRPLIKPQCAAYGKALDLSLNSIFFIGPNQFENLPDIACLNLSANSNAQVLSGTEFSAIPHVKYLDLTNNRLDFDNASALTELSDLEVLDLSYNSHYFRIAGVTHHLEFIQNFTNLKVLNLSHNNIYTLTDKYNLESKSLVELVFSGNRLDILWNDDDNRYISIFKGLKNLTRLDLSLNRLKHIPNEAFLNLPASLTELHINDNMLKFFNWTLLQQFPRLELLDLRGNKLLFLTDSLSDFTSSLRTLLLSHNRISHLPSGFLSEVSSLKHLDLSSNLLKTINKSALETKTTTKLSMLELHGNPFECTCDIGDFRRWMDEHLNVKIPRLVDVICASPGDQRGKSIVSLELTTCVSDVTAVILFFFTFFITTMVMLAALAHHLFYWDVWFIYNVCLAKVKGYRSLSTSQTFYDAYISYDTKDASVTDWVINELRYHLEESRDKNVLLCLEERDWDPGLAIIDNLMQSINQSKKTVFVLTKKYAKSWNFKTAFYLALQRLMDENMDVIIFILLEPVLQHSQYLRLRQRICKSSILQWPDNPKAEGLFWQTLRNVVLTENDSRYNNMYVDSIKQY
Summary of the method: as §1

Compound | IC50 (human TLR9) [µM] | IC50 (human TLR7) [µM] | IC50 (human TLR8) [µM]
CC(C)N1CCC(N2CCC(c3cc(F)c4nc(-c5ccc(S(C)(=O)=O)cc5)cn4c3)CC2)CC1 [Example 67, 8-fluoro-6-(1′-isopropyl-[1,4′-bipiperidin]-4-yl)-2-(4-(methylsulfonyl)phenyl) imidazo[1,2-a]pyridine] | 0.043 | 19.2 | > 50
COc1ccc(-c2cn3c(n2)CCC(C2CCN(C4CCN(CC5CC5)CC4)CC2)C3)cc1OC (single isomer, unassigned) [Example 56, 6-(1′-(cyclopropylmethyl)-[1,4′-bipiperidin]-4-yl)-2-(3,4-dimethoxyphenyl)-5,6,7,8-tetrahydroimidazo[1,2-a]pyridine] | 0.54 | 3.8 | > 50
CS(=O)(=O)c1ccc(-c2cn3cc(C4CCN(C5CC6CCC(C5)N6C5CCC5)CC4)cc(F)c3n2)cc1 (single isomer, unassigned) [Example 117, 6-(1-(8-cyclobutyl-8-azabicyclo[3.2.1]octan-3-yl)piperidin-4-yl)-8-fluoro-2-(4-(methylsulfonyl)phenyl)imidazo[1,2-a]pyridine] | 0.022 | 1.5 | 20
COc1ccc(-c2cn3c(n2)CCC(C2CCN(C4CCN(C(=O)C(C)C)CC4)CC2)C3)cc1OC (single isomer, unassigned) [Example 40, 1-(4-(2-(3,4-dimethoxyphenyl)-5,6,7,8-tetrahydroimidazo[1,2-a]pyridin-6-yl)-[1,4′-bipiperidin]-1′-yl)-2-methylpropan-1-one] | 0.185 | 38 | > 50
CC(C)CN1C2CCC1CC(N1CCC(c3cc(F)c4nc(-c5ccc(S(C)(=O)=O)cc5)cn4c3)CC1)C2 (single isomer, unassigned) [Example 113, 8-fluoro-6-(1-(8-isobutyl-8-azabicyclo[3.2.1]octan-3-yl)piperidin-4-yl)-2-(4-(methylsulfonyl)phenyl)imidazo[1,2-a]pyridine] | 0.031 | 0.6 | > 50
COc1ccc(-c2nc3n(n2)CC(c2ccc(N4CC5CCC(C4)N5C(C)C)cc2)CC3C)cc1OC (stereo not drawn) [Example 152, 2-(3,4-dimethoxyphenyl)-6-(4-(8-isopropyl-3,8-diazabicyclo[3.2.1]octan-3-yl)phenyl)-8-methyl-5,6,7,8-tetrahydro-[1,2,4]triazolo[1,5-a]pyridine] | 0.357 | > 50 | > 50
COc1ccc(-c2cn3c(n2)CCC(C2CCN(C4CC5(C4)CN(C4CCC4)C5)CC2)C3)cc1OC (single isomer, unassigned) [Example 50, 6-(1-(2-cyclobutyl-2-azaspiro[3.3]heptan-6-yl)piperidin-4-yl)-2-(3,4-dimethoxyphenyl)-5,6,7,8-tetrahydroimidazo[1,2-a]pyridine] | 0.04 | 5.3 | > 50
CS(=O)(=O)c1ccc(-c2cn3cc(C4CCN(C5CC6CCC(C5)N6C5COC5)CC4)cc(F)c3n2)cc1 (single isomer, unassigned) [Example 120, 8-fluoro-2-(4-(methylsulfonyl)phenyl)-6-(1-(8-(oxetan-3-yl)-8-azabicyclo[3.2.1]octan-3-yl)piperidin-4-yl)imidazo[1,2-a]pyridine] | 0.709 | 16.7 | > 50
Cc1cc(-c2ccc(N3CCN(CC4CC4)CC3)cc2)cn2cc(-c3ccc(S(C)(=O)=O)cc3)nc12 [Example 100, 6-(4-(4-(cyclopropylmethyl)piperazin-1-yl)phenyl)-8-methyl-2-(4-(methylsulfonyl)phenyl) imidazo[1,2-a]pyridine] | 0.329 | 13.4 | 14.9

Second part, the compound after the results:

IC50 (human TLR9) [µM] | IC50 (human TLR7) [µM] | IC50 (human TLR8) [µM] | Compound
0.235 | 13 | > 50 | CS(=O)(=O)c1ccc(-c2cn3cc(C4CCN(C5CCN(C6COC6)CC5)CC4)cc(F)c3n2)cc1 [Example 111, 8-fluoro-2-(4-(methylsulfonyl)phenyl)-6-(1′-(oxetan-3-yl)-[1,4′-bipiperidin]-4-yl)imidazo[1,2-a]pyridine]
0.163 | 47 | > 50 | COc1ccc(-c2cn3cc(C4CCN(C5CC6(C5)CN(C(C)C)C6)CC4)cc(C)c3n2)cc1OC [Example 13, 2-(3,4-dimethoxyphenyl)-6-(1-(2-isopropyl-2-azaspiro[3.3]heptan-6-yl)piperidin-4-yl)-8-methylimidazo[1,2-a]pyridine]
0.146 | 5.5 | > 50 | COc1ccc(-c2cn3cc(C4CCN(C5CCN(C6CC6)CC5)CC4)cc(C)c3n2)cc1F [Example 4, 6-(1′-cyclopropyl-[1,4′-bipiperidin]-4-yl)-2-(3-fluoro-4-methoxyphenyl)-8-methylimidazo[1,2-a]pyridine]
0.05 | 3.5 | > 25 | Cc1cc(C2CCN(C3CCN(CC4CC4)CC3)CC2)cn2cc(-c3ccc(S(C)(=O)=O)cc3)nc12 [Example 92, 6-(1′-(cyclopropylmethyl)-[1,4′-bipiperidin]-4-yl)-8-methyl-2-(4-(methylsulfonyl)phenyl)imidazo[1,2-a]pyridine]
